# Data from paper PMC8911752, “The Synthesis and Initial Evaluation of MerTK Targeted PET Agents” (Molecules, 2022).
# Columns and labels:
# Format in all cases: biochemical
# Details in all cases: ATP at Km, mean of two or more independent assays
# Flt3 = molecular target: T1, Flt3 (Homo sapiens, UniProt P36888); assay: Microcapillary electrophoresis (MCE) kinase assay, Flt3
# T1 sequence (P36888 27-993): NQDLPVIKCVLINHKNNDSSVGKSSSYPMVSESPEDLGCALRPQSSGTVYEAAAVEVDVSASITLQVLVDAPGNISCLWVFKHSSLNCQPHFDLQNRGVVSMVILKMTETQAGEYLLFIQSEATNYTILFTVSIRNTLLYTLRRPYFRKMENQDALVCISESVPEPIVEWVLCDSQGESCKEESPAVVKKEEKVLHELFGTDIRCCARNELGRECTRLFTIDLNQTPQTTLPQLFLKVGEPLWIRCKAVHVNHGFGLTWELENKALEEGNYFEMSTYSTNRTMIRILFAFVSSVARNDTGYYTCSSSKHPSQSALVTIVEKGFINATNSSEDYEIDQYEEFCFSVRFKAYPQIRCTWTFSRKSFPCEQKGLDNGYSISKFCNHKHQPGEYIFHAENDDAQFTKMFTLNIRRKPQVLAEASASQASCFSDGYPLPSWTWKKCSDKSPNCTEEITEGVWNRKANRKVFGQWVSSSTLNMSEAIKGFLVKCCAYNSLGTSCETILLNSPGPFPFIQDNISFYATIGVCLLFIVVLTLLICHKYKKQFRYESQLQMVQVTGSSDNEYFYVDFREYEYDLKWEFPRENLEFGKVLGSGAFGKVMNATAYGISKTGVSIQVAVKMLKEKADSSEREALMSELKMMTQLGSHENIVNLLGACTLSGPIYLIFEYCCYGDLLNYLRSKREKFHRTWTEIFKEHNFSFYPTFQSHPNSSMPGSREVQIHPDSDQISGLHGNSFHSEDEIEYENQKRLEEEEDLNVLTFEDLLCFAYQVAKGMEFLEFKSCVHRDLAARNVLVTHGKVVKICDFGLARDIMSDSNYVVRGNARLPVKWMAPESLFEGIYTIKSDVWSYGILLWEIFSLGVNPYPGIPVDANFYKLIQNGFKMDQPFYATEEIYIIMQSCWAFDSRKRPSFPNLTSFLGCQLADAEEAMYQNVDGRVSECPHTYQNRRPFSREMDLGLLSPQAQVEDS
# Protocol: (§1) The inhibitory activities of standards towards MerTK, Axl, Tyro3 and Flt3 were determined in our in-house microcapillary electrophoresis (MCE) assays.
# (§2) Microcapillary Electrophoresis (MCE) Assays were performed with literature method. […] All reactions were terminated by addition of 20 µL of 70 mM EDTA. After an 180 min incubation, phosphorylated and unphosphorylated substrate peptides (Table 2) were separated in buffer supplemented with 1 x CR-8 on a LabChip EZ Reader equipped with a 12-sipper chip. Data were analyzed using EZ Reader software.
# Tyro3 = molecular target: T2, Tyro3 (Homo sapiens, UniProt Q06418); assay: Microcapillary electrophoresis (MCE) kinase assay, Tyro3
# T2 sequence (Q06418 41-890): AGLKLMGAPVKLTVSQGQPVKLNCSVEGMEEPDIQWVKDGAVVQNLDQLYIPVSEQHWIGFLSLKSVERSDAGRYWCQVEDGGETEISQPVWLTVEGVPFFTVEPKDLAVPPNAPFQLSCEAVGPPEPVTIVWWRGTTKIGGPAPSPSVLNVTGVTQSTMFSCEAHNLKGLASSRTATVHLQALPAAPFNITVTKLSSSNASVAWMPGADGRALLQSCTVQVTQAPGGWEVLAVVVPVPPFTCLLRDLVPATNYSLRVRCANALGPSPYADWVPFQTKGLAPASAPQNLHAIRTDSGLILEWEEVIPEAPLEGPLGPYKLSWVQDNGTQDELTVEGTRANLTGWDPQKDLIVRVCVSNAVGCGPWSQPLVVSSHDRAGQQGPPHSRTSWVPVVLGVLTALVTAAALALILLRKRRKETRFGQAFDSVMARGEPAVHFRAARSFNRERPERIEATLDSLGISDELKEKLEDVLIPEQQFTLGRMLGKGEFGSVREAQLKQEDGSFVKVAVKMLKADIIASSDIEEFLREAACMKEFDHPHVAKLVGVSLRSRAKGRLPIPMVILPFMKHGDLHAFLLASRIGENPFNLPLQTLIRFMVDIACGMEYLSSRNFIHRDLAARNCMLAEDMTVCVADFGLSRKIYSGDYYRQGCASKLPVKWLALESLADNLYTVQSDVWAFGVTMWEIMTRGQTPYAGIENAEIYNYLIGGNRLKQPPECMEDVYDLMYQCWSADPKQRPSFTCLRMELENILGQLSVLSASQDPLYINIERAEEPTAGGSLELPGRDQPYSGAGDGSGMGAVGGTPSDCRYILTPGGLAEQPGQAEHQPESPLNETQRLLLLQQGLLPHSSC
# Protocol: as §1, §2
# Axl = molecular target: T3, Axl (Homo sapiens, UniProt P30530); assay: Microcapillary electrophoresis (MCE) kinase assay, Axl
# T3 sequence (P30530 26-894): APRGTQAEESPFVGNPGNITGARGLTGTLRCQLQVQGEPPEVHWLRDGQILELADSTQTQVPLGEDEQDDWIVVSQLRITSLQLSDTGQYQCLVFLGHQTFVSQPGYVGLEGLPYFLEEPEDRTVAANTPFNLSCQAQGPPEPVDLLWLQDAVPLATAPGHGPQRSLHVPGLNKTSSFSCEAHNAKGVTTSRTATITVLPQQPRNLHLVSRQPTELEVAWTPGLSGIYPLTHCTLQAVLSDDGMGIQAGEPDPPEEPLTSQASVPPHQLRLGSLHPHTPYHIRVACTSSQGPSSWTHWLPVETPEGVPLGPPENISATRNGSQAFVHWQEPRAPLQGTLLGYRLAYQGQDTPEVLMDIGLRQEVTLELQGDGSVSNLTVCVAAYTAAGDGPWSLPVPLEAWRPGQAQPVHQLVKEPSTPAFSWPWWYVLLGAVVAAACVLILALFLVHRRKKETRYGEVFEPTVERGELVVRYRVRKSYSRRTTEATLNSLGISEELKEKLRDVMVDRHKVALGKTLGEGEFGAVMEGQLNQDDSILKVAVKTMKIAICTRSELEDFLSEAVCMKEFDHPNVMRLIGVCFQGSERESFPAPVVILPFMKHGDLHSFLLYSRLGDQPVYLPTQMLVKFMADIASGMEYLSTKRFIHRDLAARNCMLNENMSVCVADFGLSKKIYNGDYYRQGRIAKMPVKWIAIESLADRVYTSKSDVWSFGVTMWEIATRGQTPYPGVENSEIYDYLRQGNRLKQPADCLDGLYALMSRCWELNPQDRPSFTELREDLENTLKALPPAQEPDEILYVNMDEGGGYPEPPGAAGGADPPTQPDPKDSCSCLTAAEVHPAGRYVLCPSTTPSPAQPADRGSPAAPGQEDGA
# Protocol: as §1, §2
IC50 (Flt3),IC50 (Tyro3),IC50 (Axl),SMILES
> 30 µM,0.18 µM,1.7 µM,C[C@H](Nc1ncc2c(C3CCN(C)CC3)cn([C@H]3CC[C@H](O)CC3)c2n1)c1ccccc1 [MerTK-2]
> 30 µM,0.18 µM,4.1 µM,C[C@H](Nc1ncc2c(C3CCN(C(=S)Nc4ccc(CC5CN(CC(=O)O)CCN(CC(=O)O)CCN5CC(=O)O)cc4)CC3)cn([C@H]3CC[C@H](O)CC3)c2n1)c1ccccc1 (stereo partly drawn) [MerTK-4]
1 µM,0.19 µM,1.1 µM,CCC[C@H](C)Nc1ncc2c(C3CCN(CCF)CC3)cn([C@H]3CC[C@H](O)CC3)c2n1 [MerTK-5]
5.5 µM,0.12 µM,2.1 µM,C[C@H](Nc1ncc2c(C3CCN(CCF)CC3)cn([C@H]3CC[C@H](O)CC3)c2n1)c1ccccc1 [MerTK-6]
